Measured values from patent US4145554A, “3-Nitropyrazole derivatives” (Eli Lilly and Company, priority 1977, dated 1979).
In brackets after ≈: the same amount, converted by molar mass. Like-named read-outs stand apart in the source and are kept apart here.

Experiments:
[1] = system: Escherichia coli; assay: in vitro tube dilution test (MIC); format: cell-based; settings: tube dilution, read-out: MIC
From the text: (§1) Our compound, 1-(2-hydroxyethyl)-3-nitro-4-pyrazolecarboxamide, has been extensively tested in vitro to determine the range of microorganisms against which it is active. The table of data below reports the minimum inhibitory concentration (MIC) at which the compound is effective in controlling a variety of microorganisms in a standard tube dilution test system. The MIC is reported as micrograms of compound per milliliter.
(§2) Other compounds of our invention have also been tested in the tube dilution test and shown to have in vitro activity against a number of microorganisms. The table below reports tests of a number of exemplary compounds against exemplary microorganisms. The compounds are identified by their numbers in the listing above. The data are reported as the MIC in micrograms per milliliter against the named exemplary microorganisms.

[2] = system: Mycoplasma gallisepticum; assay: in vitro tube dilution test (MIC); format: cell-based; settings: Mycoplasmoides gallisepticum; Mycoplasma gallisepticum, tube dilution; read-out: MIC
From the text: as §1, §2

[3] = system: Pasteurella multocida; assay: in vitro tube dilution test (MIC); format: cell-based; settings: tube dilution, read-out: MIC
From the text: as §1
(§3) The other preferred compounds of our invention have also been thoroughly tested in the in vitro tube dilution test.
as §2

[4] = system: Salmonella dublin; assay: in vitro tube dilution test (MIC); format: cell-based; settings: Salmonella enterica; Salmonella dublin, tube dilution; read-out: MIC
From the text: as §3, §2

[5] = system: Staphylococcus aureus sp. 1130; assay: in vitro tube dilution test (MIC); format: cell-based; settings: read-out: MIC
From the text: as §3, §2

[6] = system: Vibrio coli 3811; assay: in vitro tube dilution test (MIC); format: cell-based; settings: Campylobacter coli; Vibrio coli 3811, tube dilution; read-out: MIC
From the text: as §3, §2

[7] = system: Streptococcus sp. 80; assay: in vitro tube dilution test (MIC); format: cell-based; settings: Streptococcus sp. 80, tube dilution; read-out: MIC
From the text: as §2

[8] = system: H. meleagridis; assay: Blackhead in poultry, chicks; format: in vivo
Protocol: (§4) One- to three-week-old chicks and turkey poults were obtained from homogeneous source flocks and allocated into treatment groups. Some groups were held as infected, untreated controls, and other groups were treated with 3-nitropyrazoles by administering the compounds in the birds' feed. Various concentrations of the pyrazoles were administered to determine the least concentration which protected the birds. A few days after the administration of medicated feed began, all of the birds were challenged by rectally administering a suspension of at least 5,000 H. meleagridis protozoa per chick. The challenge organisms had been originally obtained from infected chickens, and were grown in vitro to provide a supply of organisms for testing.
(§5) The birds were held for about seven days after the challenge was administered, during which time the administration of pyrazole-medicated feed was continued. Then all of the chicks, including the untreated, infected controls, were sacrificed and necropsied. The cecum and the liver of each bird were examined for characteristic H. meleagridis lesions.
(§6) For each compound, the lowest feed concentration which gave an active response is indicated. While feed consumption data were not taken during the tests, the birds ate at such a rate that a feed concentration of 0.02 percent is equivalent to a treatment rate of about 10 mg./kg./day.

[9] = system: Salmonella typhimurium; assay: Salmonellosis in chickens, single injection to day-old chicks; format: in vivo; settings: for responders at 60 mg/kg: Salmonella enterica, TYPHIMURIUM, 168 h, single injection of 60 mg./kg., seven days, read-out: Survival (converted)
Protocol: A number of our 3-nitropyrazoles have been tested against an induced infection of Salmonella typhimurium in day-old chicks. The test was conducted by administering a single injection of 60 mg./kg. of the compounds to each of five chicks. The following day, the chicks were challenged by the subcutaneous injection of a dispersion of S. typhimurium organisms sufficient to kill most or all of the untreated control chicks.
Some of the compounds were tested more than once, in which instances the data are reported as the total survivors from the multiple treatment groups. Untreated, challenged control groups of chicks were tested together with each batch of groups of chicks to which test compounds were administered. Since the mortality of the untreated control chicks varied somewhat from one group of tests to another, results of the untreated control groups are reported below with each test.

[10] = system: Erwinia amylovora; assay: Fire blight of pear, in vivo greenhouse test
Protocol: An in vivo test was conducted against the fire blight organism, Erwinia amylovora. Plants infected with E. amylovora were sprayed with aqueous dispersions containing 100 ppm. and 500 ppm. of the test compounds. […] The compounds are identified below by their compound numbers in the above listing.

[11] = system: E. amylovora; assay: Fire blight of apple, induced infection of McIntosh apple seedlings; format: in vivo; settings: 6 days, scale 1 (symptoms in main stem) to 4 (complete control)
From the text: A typical test of one of our compounds against an induced E. amylovora infection of McIntosh apple seedlings will be reported. The compound, [2-(4-carbamoyl-3-nitropyrazol-1-yl)ethyl] phenyl carbonate, was sprayed on the seedlings as an aqueous dispersion at the concentrations shown below. Four replicate trees were used per treatment. After the spray had dried, each tree was challenged by punching a hole through the midvein at the tip of one leaf per plant, and placing a drop of an E. amylovora culture in the hole.
After 6 days, the trees were observed, and the control of the infection was rated on the following scale.
1 = disease symptoms in main stem
2 = disease symptoms in petiole
3 = disease symptoms in the leaf only
4 = complete control of disease
The results are shown below as the mean disease control rating.

[12] = system: mycoplasma which causes aster yellows; assay: Aster yellows disease test; format: in vivo, aster plants; settings: 20 days
From the text: The following data report a test of an exemplary compound against aster yellows disease. The compound, [2-(4-carbamoyl-3-nitropyrazol-1-yl)ethyl] phenyl carbonate, was applied to aster plants as an aqueous dispersion at concentrations shown below. Two plants were sprayed with each concentration. Each pair of plants was placed in a wire mesh cage, and four leafhoppers infected with the mycoplasma which causes aster yellows were placed in each cage. After 20 days, the plants were observed and disease control was rated as the percent of the plants' surface affected by the disease.

[13] = system: Mycoplasma synoviae; assay: in vitro tube dilution test (MIC); format: cell-based; settings: Mycoplasmopsis synoviae, footnote 1: M. synoviae
From the text: as §1, §2

[14] = system: Mycoplasma hyorhinis; assay: in vitro tube dilution test (MIC); format: cell-based
From the text: as §1, §3

[15] = system: Pseudomonas sp.; assay: in vitro tube dilution test (MIC); format: cell-based
From the text: as §1, §3

[16] = system: Mycoplasma gallisepticum 38502; assay: in vitro tube dilution test (MIC); format: cell-based; settings: Mycoplasmoides gallisepticum; Mycoplasma gallisepticum 38502, tube dilution
From the text: as §3

[17] = system: Staphylococcus aureus 3055; assay: in vitro tube dilution test (MIC); format: cell-based; settings: Staphylococcus aureus 3055, tube dilution
From the text: as §3

[18] = system: Streptococcus pyogenes; assay: Tests in mice, Streptococcus pyogenes infection; format: in vivo; settings: S. pyogenes, two subcutaneous doses of 83 mg./kg., 1 and 5 hours
Protocol: (§7) Groups of laboratory mice were inoculatd with E. coli or with Streptococcus pyogenes. The 3-nitropyrazoles were administered in two different modes to the infected mice. In one group of tests, the compound was administered in two subcutaneous doses of 83 mg./kg. each, given 1 and 5 hours after the mice were inoculated with the organism. The mice were observed, and the results reported below as the number of days the treated mice survived the challenge.
(§8) In the other group of tests, the dose of each compound which allowed 50 percent of the treated mice to survive the challenge was determined. Again, the compound was administered in subcutane divided doses, 1 and 5 hours post-inoculation.

[19] = system: E. coli; assay: Tests in mice, E. coli infection; format: in vivo; settings: for ED50: Escherichia coli, sc, subcutaneous, 1 and 5 hours post-inoculation; for Days Survived: two subcutaneous doses of 83 mg./kg., 1 and 5 hours
Protocol: as §7, §8

[20] = system: H. meleagridis; assay: Blackhead in poultry, turkeys; format: in vivo
Protocol: as §4, §5, §6

[21] = system: S. typhimurium; assay: Salmonella typhimurium in chickens, medicated feed; format: in vivo, chicks; settings: Test C, 200 gm./ton feed
[22] = system: avian E. coli; assay: Colibacillosis in chickens, medicated feed; format: in vivo; settings: 300 gm./ton feed; about 5 weeks old; 10^-2 dilution challenge; first test
[23] = system: Salmonella heidelburg 1593; assay: in vitro tube dilution test (MIC); format: cell-based; settings: Salmonella heidelburg 1593, tube dilution
From the text: as §1, §3

[24] = system: Salmonella pullorum Ill.; assay: in vitro tube dilution test (MIC); format: cell-based; settings: Salmonella enterica
From the text: as §1, §3

[25] = system: Salmonella typhimurium 1335; assay: in vitro tube dilution test (MIC); format: cell-based; settings: Salmonella enterica; Salmonella typhimurium 1335, tube dilution
From the text: as §1, §3

[26] = Staphylococcus aureus sp. 1130, tube dilution
[27] = Staphylococcus aureus, SP.1130, Staphyloccocus 1130, tube dilution

| Structure (SMILES) | MIC [1] [µg/mL] | MIC [2] [µg/mL] | MIC [3] [µg/mL] | MIC [4] [µg/mL] | MIC [5, 26] [µg/mL] | MIC [6] [µg/mL] | MIC [7] [µg/mL] | Active Level (lowest feed concentration which gave an active response) [8] | responders at 60 mg/kg [9] [%] | other results |
| --- | --- | --- | --- | --- | --- | --- | --- | --- | --- | --- |
| NC(=O)c1cn(CC2CC2)nc1[N+](=O)[O-] [Compound 90, 1-cyclopropylmethyl-3-nitro-4-pyrazolecarboxamide] | 50 (≈ 238 µM) | > 50 | 25 (≈ 119 µM) | 50 (≈ 238 µM) | 50 (≈ 238 µM) | 50 (≈ 238 µM) | > 50 | .02% | 80 | – |
| Cn1cc(C(N)=O)c([N+](=O)[O-])n1 [Compound 3, 1-methyl-3-nitro-4-pyrazolecarboxamide] | 12.5 (≈ 73.5 µM) | 50 (≈ 294 µM) | – | 6.25 (≈ 36.7 µM) | 12.5 (≈ 73.5 µM) | 6.25 (≈ 36.7 µM) | 100 (≈ 588 µM) | .02% | – | Percent Control of fire blight ([10]; 100 ppm.): 25%; Percent Control of fire blight ([10]; 500 ppm.): 75% |
| COCCn1cc(C(N)=O)c([N+](=O)[O-])n1 [Compound 65, 1-(2-methoxyethyl)-3-nitro-4-pyrazolecarboxamide] | 12.5 (≈ 58.4 µM) | 50 (≈ 233 µM) | 50 (≈ 233 µM) | 12.5 (≈ 58.4 µM) | 50 (≈ 233 µM) | 50 (≈ 233 µM) | > 50 | .02% | 70 | – |
| NC(=O)c1cn(CCOC(=O)Oc2ccccc2)nc1[N+](=O)[O-] [Compound 77, [2-(4-carbamoyl-3-nitropyrazol-1-yl)ethyl] phenyl carbonate] | – | – | – | – | – | – | – | .02% | 80 | mean disease control rating ([11]; 200 ppm.): 2.5; mean disease control rating ([11]; 400 ppm.): 3.5; mean disease control rating ([11]; 600 ppm.): 3.0; mean disease control rating ([11]; 800 ppm.): 3.4; mean disease control rating ([11]; 1000 ppm.): 3.5; mean disease control rating ([11]; 1200 ppm.): 3.5; Percent Infection (percent of plants' surface affected) ([12]; Concentration 200 (unit not given)): 0%; Percent Infection (percent of plants' surface affected) ([12]; Concentration 400 (unit not given)): 25%; Percent Infection (percent of plants' surface affected) ([12]; Concentration 800 (unit not given)): 0% |
| COC(=O)c1cn(CCO)nc1[N+](=O)[O-] [Compound 71, methyl 1-(2-hydroxyethyl)-3-nitro-4-pyrazolecarboxylate] | > 50 | – | > 50 | > 50 | > 50 | > 50 | > 50 | – | – | MIC [13]: 0.39 µg/mL (≈ 1.81 µM) |
| CCOCCn1cc(C(N)=O)c([N+](=O)[O-])n1 [Compound 34, 1-(2-ethoxyethyl)-3-nitro-4-pyrazolecarboxamide] | – | – | 25 (≈ 110 µM) | 25 (≈ 110 µM) | – | 50 (≈ 219 µM) | – | – | 40 | MIC [14]: 50 µg/mL (≈ 219 µM); MIC [15]: 50 µg/mL (≈ 219 µM); MIC [16]: 50 µg/mL (≈ 219 µM); MIC [17]: 100 µg/mL (≈ 438 µM); MIC [5, 27]: 6.25 µg/mL (≈ 27.4 µM); Percent Control of fire blight ([10]; 100 ppm.): 33%; Percent Control of fire blight ([10]; 500 ppm.): 66%; Days Survived [18]: 5.0 days; ED50 [19]: > 41 mg/kg; Days Survived [19]: 7.0 days; Active Level (lowest feed concentration which gave an active response) [20]: .02%; Survival [21]: 25/48; Avg. Wt. ([21]; surviving chicks): 62 gm.; E. coli Lesions [22]: 11/30; Mortality [22]: 0/30; Wt. [22]: 1136 gm. |
| NC(=O)c1cn(CCc2ccccc2)nc1[N+](=O)[O-] [Compound 17, 1-phenethyl-3-nitro-4-pyrazolecarboxamide] | – | – | – | – | – | – | – | .0067% | – | Active Level (lowest feed concentration which gave an active response) [20]: .02% |
| CNC(=O)c1cn(CCO)nc1[N+](=O)[O-] [Compound 58, 1-(2-hydroxyethyl)-N-methyl-3-nitro-4-pyrazolecarboxamide] | – | – | 0.78 (≈ 3.64 µM) | 12.5 (≈ 58.4 µM) | – | 25 (≈ 117 µM) | – | – | 90 | MIC [15]: 25 µg/mL (≈ 117 µM); MIC [23]: 12.5 µg/mL (≈ 58.4 µM); MIC [24]: 3.12 µg/mL (≈ 14.6 µM); MIC [25]: 12.5 µg/mL (≈ 58.4 µM); MIC [16]: 6.25 µg/mL (≈ 29.2 µM); MIC [17]: 10 µg/mL (≈ 46.7 µM); MIC [5, 27]: 12.5 µg/mL (≈ 58.4 µM); Days Survived [18]: 1.8 days; ED50 [19]: 40 mg/kg; Days Survived [19]: 7.0 days |
| CNc1nnc(-c2cn(C)nc2[N+](=O)[O-])s1 [Compound 2, 2-(1-methyl-3-nitro-4-pyrazolyl)-5-methylamino-1,3,4-thiadiazole] | 50 (≈ 208 µM) | 6.25 (≈ 26 µM) | – | 50 (≈ 208 µM) | 50 (≈ 208 µM) | 25 (≈ 104 µM) | 50 (≈ 208 µM) | .02% | – | chicks protected of the 5-bird treated group ([9]; salmonella challenge): at least three chicks of the 5-bird treated group |
